Measurements reported in article PMC6148290, “Endogenous metabolites of vitamin E limit inflammation by targeting 5-lipoxygenase” (Nature Communications, 2018).
Read-outs that look alike come from different tables or passages of the source.

What was measured:
[1] = LCM concentrations in plasma and peritoneal exudate of mice with peritonitis (UPLC-MS/MS); assay type: in vivo; settings: CD-1, mouse; for concentration at 240 min: ip, 10 mg/kg i.p., 240 min post zymosan
Method: Mice were killed by inhalation of CO2 after another 30 min for determination of LTC4 levels and vascular permeability and after 4 h for the analysis of LTB4 levels, lipidomic profiles and immune cell infiltration. Cell infiltration and lipid mediator profiles during resolution were studied after 18 h. Peritoneal exudates were collected and cells counted after vital trypan blue staining. LTC4, LTB4, and PGE2 were analyzed in the exudate by enzyme immunoassays (Enzo Life Sciences, Lörrach, Germany) according to manufacturer's instructions. To assess vascular permeability, Evans blue dye (40 mg/kg in saline, 0.3 ml; Sigma-Aldrich) was injected into the tail vain immediately before the induction of peritonitis. Exudates were centrifuged (3000 × g, 5 min) and the absorbance of the supernatants was measured at 610 nm using a Beckman Coulter DU730 spectrophotometer. To investigate the effect of α-T (1a) on the accumulation of α-T-13'-COOH (4a) in infiltrated leukocytes after peritonitis has been established, vehicle or α-[…].) were given 1 h before and/or 4 h post zymosan injection, and mice were killed after another 1.5 h. Leukocytes were obtained from peritoneal exudates by centrifugation (1200 × g, 10 min, 4 °C). Lipids, including LCMs, were extracted from PMNL, murine peritoneal exudates or murine plasma by successive addition of PBS pH 7.4, methanol, chloroform and saline (final ratio: 14:34:35:17)[68]. […] Multiple reaction monitoring was used to detect LCMs in the negative ion mode. The precursor-to-product ion transitions were selected according to Jiang et al.[69] and are listed in Supplementary Table 3. The ion spray voltage was set to -4500 V, the heated capillary temperature to 450 °C, the sheath gas pressure to 50 psi, the auxiliary gas pressure to 40 psi, and the declustering potential to 80 eV (for Ts) or 110 eV (for TEs). Collision energies and lower limits of quantitation are listed in Supplementary Table 3.

[2] = molecular target: T1, COX-2 (Homo sapiens, UniProt P35354); experiment: COX-2-dependent PGE2 formation in LPS-activated monocytes; assay type: cell-based; set-up: endogenous in cells; host or cells: human monocytes, LPS-stimulated for 24 h; settings: up to 10 µM
T1 sequence (P35354 18-604): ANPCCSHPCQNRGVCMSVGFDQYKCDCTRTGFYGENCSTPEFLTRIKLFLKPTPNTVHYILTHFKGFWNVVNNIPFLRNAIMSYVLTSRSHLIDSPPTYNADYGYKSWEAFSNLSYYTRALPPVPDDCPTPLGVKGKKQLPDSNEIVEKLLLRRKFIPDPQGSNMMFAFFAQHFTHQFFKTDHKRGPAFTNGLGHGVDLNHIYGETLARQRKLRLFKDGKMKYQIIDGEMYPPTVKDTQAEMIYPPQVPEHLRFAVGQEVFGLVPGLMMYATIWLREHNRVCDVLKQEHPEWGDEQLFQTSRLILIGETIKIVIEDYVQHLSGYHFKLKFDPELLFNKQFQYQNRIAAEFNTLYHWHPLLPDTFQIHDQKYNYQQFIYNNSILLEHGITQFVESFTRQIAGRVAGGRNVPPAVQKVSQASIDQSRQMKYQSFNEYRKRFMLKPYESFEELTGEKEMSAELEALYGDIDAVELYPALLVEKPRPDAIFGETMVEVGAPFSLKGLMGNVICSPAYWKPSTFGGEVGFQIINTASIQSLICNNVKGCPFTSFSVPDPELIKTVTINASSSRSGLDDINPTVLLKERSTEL
Method: Cells were washed and medium was exchanged. Freshly isolated PMNL (1 × 10^7) and stably transfected HEK-293 (1 × 10^6) cells were suspended in PBS pH 7.4 containing 1 mg/ml glucose and 1 mM CaCl2. […] A23187- and A23187/AA-treated PMNL and A23187/AA-treated HEK-293 (5-LO_wt), HEK-293 (5-LO_3W) and HEK-293 (5-LO_Arg101Asp) cells produced 135 ± 21, 636 ± 112, 300 ± 59, 133 ± 29, 55 ± 9 ng 5-LO products, respectively. PMNL synthesized 29 ± 6 ng 12-HETE and 97 ± 23 ng 15-HETE when challenged with A23187/AA. 5-LO products from monocytes were analyzed by UPLC-MS/MS.
LPS-activated monocytes were treated with A23187 (2.5 µM) and AA (20 µM) to induce lipid mediator biosynthesis as described for LO product formation. Human blood was pre-incubated with vehicle (DMSO) or α-T-13′-COOH (4a, 100 nM) for 10 min, primed with LPS (1 µg/ml) for 30 min and stimulated with N-formyl-methionyl-leucyl-phenylalanine (fMLP, Sigma-Aldrich; 1 µM) for 15 min at 37 °C.

[3] = molecular target: T2, human microsomal prostaglandin E2 synthase (mPGES)-1 (Homo sapiens, UniProt O14684); experiment: mPGES-1 activity in microsomal preparations of IL-1β-treated A549 cells
T2 sequence (O14684 1-152): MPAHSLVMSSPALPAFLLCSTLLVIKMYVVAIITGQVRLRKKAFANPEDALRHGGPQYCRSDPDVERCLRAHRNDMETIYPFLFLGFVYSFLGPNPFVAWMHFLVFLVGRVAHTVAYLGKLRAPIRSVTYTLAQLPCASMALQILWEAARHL
Method: Microsomal membranes of interleukin-1β-treated A549 cells were prepared as source of mPGES-1[67]. […] Ice-cold homogenization buffer (0.1 M potassium phosphate buffer pH 7.4, 1 mM phenylmethanesulphonyl fluoride, 60 µg/ml soybean trypsin inhibitor, 1 µg/ml leupeptin, 2.5 mM glutathione, and 250 mM sucrose) was added, and cells were incubated for 15 min on ice prior to sonication (3 × 20 s, 4 °C). […] Microsomes were suspended in homogenization buffer and diluted in potassium phosphate buffer (0.1 M, pH 7.4) containing 2.5 mM glutathione. Membranes (2.5–5 µg total protein) were pre-incubated with LCMs for 15 min at 4 °C, and PGE2 formation was initiated by addition of PGH2 (20 µM, final concentration). The reaction was terminated after 1 min by addition of one volume stop solution (40 mM FeCl2, 80 mM citric acid and 1 nmol of the internal standard 11β-PGE2, Cayman Chemicals).

Cc1c(C)c2c(c(C)c1O)CC[C@@](C)(CCCC(C)CCCC(C)CCCC(C)C(=O)O)O2 (stereo partly drawn) [4a, 13-((2R)-6-hydroxy-2,5,7,8-tetramethylchroman-2-yl)-2,6,10-trimethyltridecanoic acid]
concentration at 30 min ([1]; peritoneal exudate, endogenous, 30 min post zymosan injection, read-out: α-T-13′-COOH (4a) concentration in peritoneal exudate): ≤ 200 nM
concentration at 240 min ([1]; peritoneal exudate, read-out: α-T-13′-COOH (4a) concentration in peritoneal exudate): 3900 nM
concentration at 240 min ([1]; plasma, read-out: α-T-13′-COOH (4a) concentration in plasma): 1400 nM
inhibition of COX-2-dependent PGE2 formation in activated human monocytes [2]: not inhibited
IC50 [3]: 8.8 µM
